{"source": "patent US4755513A", "about": "“Antimicrobial 1-substituted phenyl-4-oxoquinoline-3-carboxylic acid compounds” (Otsuka Pharmaceutical Company, Limited, priority 1985, dated 1988)", "key": {"[1]": {"test_system": "Staphylococcus pyrogens IID S-23", "test": "MIC by serial dilution method on agar plate", "type": "cell-based", "excerpt": "(§1) The microorganisms were used in a concentration of 1×10^8 cells/ml (O.D. 660 mμ, 0.07-0.16) and 1×10^6 cells/ml (100 folds dilution)."}, "[2]": {"test_system": "Staphylococcus aureus FDA 209P", "test": "MIC by serial dilution method on agar plate", "type": "cell-based", "excerpt": "as §1"}, "[3]": {"test_system": "Streptococcus faecalis IFO 12580", "test": "MIC by serial dilution method on agar plate", "type": "cell-based", "excerpt": "(§2) Chemotherapy, 22, 1126-1128 (1974)]. The microorganisms were used in a concentration of 1×10^8 cells/ml (O.D. 660 mμ, 0.07-0.16) and 1×10^6 cells/ml (100 folds dilution)."}, "[4]": {"test_system": "Bacillus subtilis ATCC 6633", "test": "MIC by serial dilution method on agar plate", "type": "cell-based", "excerpt": "as §2"}, "Escherichia coli No. 29": {"test_system": "Escherichia coli No. 29", "test": "MIC by serial dilution method on agar plate", "type": "cell-based", "excerpt": "as §2"}, "[5]": {"test_system": "Pseudomonas aeruginosa ATCC 10145", "test": "MIC by serial dilution method on agar plate", "type": "cell-based", "excerpt": "as §2"}, "[6]": {"test_system": "Pseudomonas aeruginosa E-2", "test": "MIC by serial dilution method on agar plate", "type": "cell-based", "excerpt": "as §2"}, "[7]": {"test_system": "Acinetobacter calcoaceticus AC-54", "test": "MIC by serial dilution method on agar plate", "type": "cell-based", "excerpt": "as §2"}, "[8]": {"test_system": "Proteus morganii IID Kono", "test": "MIC by serial dilution method on agar plate", "type": "cell-based", "excerpt": "as §2"}, "[9]": {"test_system": "Klebsiella pneumoniae NCTC 9632", "test": "MIC by serial dilution method on agar plate", "type": "cell-based", "excerpt": "as §2"}, "[10]": {"test_system": "Serratia marcescens IFO 12648", "test": "MIC by serial dilution method on agar plate", "type": "cell-based", "excerpt": "as §2"}, "[11]": {"test_system": "Escherichia coli NIHJ JC-2", "test": "MIC by serial dilution method on agar plate", "type": "cell-based", "excerpt": "as §2"}, "[12]": {"test_system": "Proteus inconstans IFO 12930", "test": "MIC by serial dilution method on agar plate", "type": "cell-based", "excerpt": "as §2"}, "[13]": {"test": "Absorption by oral administration in monkey (plasma concentration, thin layer cup bio-assay)", "type": "in vivo", "details": "10 mg/kg", "experimental": "The test compounds were dissolved in 0.1N hydrochloric acid or suspended in 0.5% sodium carboxymethyl cellulose solution. The solution or suspension was administered into stomach of monkey (two monkeys) with cathetel. After the administration of test compounds, the blood was collected from the lower limbs vein at a fixed interval with a syringe treated with heparin. The collected blood was centrifuged at 3,000 r.p.m. for 10 minutes to separate the plasma. The concentration of the test compound was measured by a thin layer cup method (a bio-assay), wherein Bacillus subtilis ATCC 6633 was used as a bacteria for determination. Based on a standard curve, the concentration of test compound in plasma was calculated."}}, "note": "Where two headings read alike, the source gives them in different places.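 Wherever Amount of test compd. in plasma is given: plasma concentration in γ/ml (µg/mL) rather than the printed ng/mL.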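 Wherever Amount of test compd. in plasma, Average is given: plasma concentration in γ/ml (µg/mL) rather than the printed ng/mL.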"}
{"compound": "6,8-Difluoro-1-(4-hydroxyphenyl)-7-(1-piperazinyl)-1,4-dihydro-4-oxoquinoline-3-carboxylic acid [Example 2]", "values": [{"measurement": "minimum inhibitory concentration (MIC)", "setting": "[1]; 1 × 10^8 cells/ml", "result": 12.5}, {"measurement": "minimum inhibitory concentration (MIC)", "setting": "[2]; 1 × 10^6 cells/ml", "result": 0.195}, {"measurement": "minimum inhibitory concentration (MIC)", "setting": "[2]; 1 × 10^8 cells/ml", "result": 0.39}, {"measurement": "minimum inhibitory concentration (MIC)", "setting": "[3]; 1 × 10^6 cells/ml", "result": 3.12}, {"measurement": "minimum inhibitory concentration (MIC)", "setting": "[3]; 1 × 10^8 cells/ml", "result": 6.25}, {"measurement": "minimum inhibitory concentration (MIC)", "setting": "[4]; 1 × 10^6 cells/ml", "result": 0.097}, {"measurement": "minimum inhibitory concentration (MIC)", "setting": "[4]; 1 × 10^8 cells/ml", "result": 0.195}, {"measurement": "minimum inhibitory concentration (MIC)", "setting": "Escherichia coli No. 29; 1 × 10^6 cells/ml", "result": "< 0.048"}, {"measurement": "minimum inhibitory concentration (MIC)", "setting": "Escherichia coli No. 29; 1 × 10^8 cells/ml", "result": "< 0.048"}, {"measurement": "minimum inhibitory concentration (MIC)", "setting": "[5]; 1 × 10^6 cells/ml", "result": 0.781}, {"measurement": "minimum inhibitory concentration (MIC)", "setting": "[5]; 1 × 10^8 cells/ml", "result": 1.56}, {"measurement": "minimum inhibitory concentration (MIC)", "setting": "[6]; 1 × 10^6 cells/ml", "result": 0.781}, {"measurement": "minimum inhibitory concentration (MIC)", "setting": "[6]; 1 × 10^8 cells/ml", "result": 1.56}, {"measurement": "minimum inhibitory concentration (MIC)", "setting": "[7]; 1 × 10^6 cells/ml", "result": 0.195}, {"measurement": "minimum inhibitory concentration (MIC)", "setting": "[7]; 1 × 10^8 cells/ml", "result": 0.39}, {"measurement": "minimum inhibitory concentration (MIC)", "setting": "[8]; 1 × 10^6 cells/ml", "result": 0.048}, {"measurement": "minimum inhibitory concentration (MIC)", "setting": "[8]; 1 × 10^8 cells/ml", "result": 0.097}, {"measurement": "minimum inhibitory concentration (MIC)", "setting": "[9]; 1 × 10^6 cells/ml", "result": "< 0.048"}, {"measurement": "minimum inhibitory concentration (MIC)", "setting": "[9]; 1 × 10^8 cells/ml", "result": "< 0.048"}, {"measurement": "minimum inhibitory concentration (MIC)", "setting": "[10]; 1 × 10^6 cells/ml", "result": 0.097}, {"measurement": "minimum inhibitory concentration (MIC)", "setting": "[10]; 1 × 10^8 cells/ml", "result": 0.195}, {"measurement": "minimum inhibitory concentration (MIC)", "setting": "[11]; 1 × 10^6 cells/ml", "result": "< 0.048"}, {"measurement": "minimum inhibitory concentration (MIC)", "setting": "[11]; 1 × 10^8 cells/ml", "result": "< 0.048"}, {"measurement": "minimum inhibitory concentration (MIC)", "setting": "[12]; 1 × 10^6 cells/ml", "result": 0.195}, {"measurement": "minimum inhibitory concentration (MIC)", "setting": "[12]; 1 × 10^8 cells/ml", "result": 0.39}]}
{"compound": "CN1CCN(c2c(F)cc3c(=O)c(C(=O)O)cn(-c4ccc(O)cc4)c3c2F)CC1", "note": "[Test Compd. No. 1, 6,8-Difluoro-1-(4-hydroxyphenyl)-7-(4-methyl-1-piperazinyl)-1,4-dihydro-4-oxoquinoline-3-carboxylic acid]", "values": [{"measurement": "concentration at 0.5 h", "setting": "[13]; Run 1, 0.5 hour, read-out: Amount of test compd. in plasma", "result": 2350, "unit": "ng/mL"}, {"measurement": "concentration at 1 h", "setting": "[13]; Run 1, 1 hour, read-out: Amount of test compd. in plasma", "result": 4260, "unit": "ng/mL"}, {"measurement": "concentration at 2 h", "setting": "[13]; Run 1, 2 hour, read-out: Amount of test compd. in plasma", "result": 1940, "unit": "ng/mL"}, {"measurement": "concentration at 4 h", "setting": "[13]; Run 1, 4 hour, read-out: Amount of test compd. in plasma", "result": 720, "unit": "ng/mL"}, {"measurement": "concentration at 7 h", "setting": "[13]; Run 1, 7 hour, read-out: Amount of test compd. in plasma", "result": "< 200", "unit": "ng/mL"}, {"measurement": "concentration at 24 h", "setting": "[13]; Run 1, 24 hour, read-out: Amount of test compd. in plasma", "result": "< 200", "unit": "ng/mL"}, {"measurement": "concentration at 0.5 h", "setting": "[13]; Run 2, 0.5 hour, read-out: Amount of test compd. in plasma", "result": "< 200", "unit": "ng/mL"}, {"measurement": "concentration at 1 h", "setting": "[13]; Run 2, 1 hour, read-out: Amount of test compd. in plasma", "result": 2180, "unit": "ng/mL"}, {"measurement": "concentration at 2 h", "setting": "[13]; Run 2, 2 hour, read-out: Amount of test compd. in plasma", "result": 1120, "unit": "ng/mL"}, {"measurement": "concentration at 4 h", "setting": "[13]; Run 2, 4 hour, read-out: Amount of test compd. in plasma", "result": 1120, "unit": "ng/mL"}, {"measurement": "concentration at 7 h", "setting": "[13]; Run 2, 7 hour, read-out: Amount of test compd. in plasma", "result": "< 200", "unit": "ng/mL"}, {"measurement": "concentration at 24 h", "setting": "[13]; Run 2, 24 hour, read-out: Amount of test compd. in plasma", "result": "< 200", "unit": "ng/mL"}, {"measurement": "concentration at 0.5 h", "setting": "[13]; average of two runs, 0.5 hour, read-out: Amount of test compd. in plasma, Average", "result": "< 1370", "unit": "ng/mL"}, {"measurement": "concentration at 1 h", "setting": "[13]; average of two runs, 1 hour, read-out: Amount of test compd. in plasma, Average", "result": 3220, "unit": "ng/mL"}, {"measurement": "concentration at 2 h", "setting": "[13]; average of two runs, 2 hour, read-out: Amount of test compd. in plasma, Average", "result": 1530, "unit": "ng/mL"}, {"measurement": "concentration at 4 h", "setting": "[13]; average of two runs, 4 hour, read-out: Amount of test compd. in plasma, Average", "result": 920, "unit": "ng/mL"}, {"measurement": "concentration at 7 h", "setting": "[13]; average of two runs, 7 hour, read-out: Amount of test compd. in plasma, Average", "result": "< 390", "unit": "ng/mL"}, {"measurement": "concentration at 24 h", "setting": "[13]; average of two runs, 24 hour, read-out: Amount of test compd. in plasma, Average", "result": "< 390", "unit": "ng/mL"}, {"measurement": "minimum inhibitory concentration (MIC)", "setting": "[1]; 1 × 10^6 cells/ml", "result": 0.39}, {"measurement": "minimum inhibitory concentration (MIC)", "setting": "[1]; 1 × 10^8 cells/ml", "result": 0.781}, {"measurement": "minimum inhibitory concentration (MIC)", "setting": "[2]; 1 × 10^6 cells/ml", "result": "< 0.048"}, {"measurement": "minimum inhibitory concentration (MIC)", "setting": "[2]; 1 × 10^8 cells/ml", "result": "< 0.048"}, {"measurement": "minimum inhibitory concentration (MIC)", "setting": "[3]; 1 × 10^6 cells/ml", "result": 0.097}, {"measurement": "minimum inhibitory concentration (MIC)", "setting": "[3]; 1 × 10^8 cells/ml", "result": 0.195}, {"measurement": "minimum inhibitory concentration (MIC)", "setting": "[4]; 1 × 10^6 cells/ml", "result": "< 0.048"}, {"measurement": "minimum inhibitory concentration (MIC)", "setting": "[4]; 1 × 10^8 cells/ml", "result": "< 0.048"}, {"measurement": "minimum inhibitory concentration (MIC)", "setting": "Escherichia coli No. 29; 1 × 10^6 cells/ml", "result": "< 0.048"}, {"measurement": "minimum inhibitory concentration (MIC)", "setting": "Escherichia coli No. 29; 1 × 10^8 cells/ml", "result": "< 0.048"}, {"measurement": "minimum inhibitory concentration (MIC)", "setting": "[5]; 1 × 10^6 cells/ml", "result": 0.195}, {"measurement": "minimum inhibitory concentration (MIC)", "setting": "[5]; 1 × 10^8 cells/ml", "result": 0.39}, {"measurement": "minimum inhibitory concentration (MIC)", "setting": "[6]; 1 × 10^6 cells/ml", "result": 0.097}, {"measurement": "minimum inhibitory concentration (MIC)", "setting": "[6]; 1 × 10^8 cells/ml", "result": 0.195}, {"measurement": "minimum inhibitory concentration (MIC)", "setting": "[7]; 1 × 10^6 cells/ml", "result": "< 0.048"}, {"measurement": "minimum inhibitory concentration (MIC)", "setting": "[7]; 1 × 10^8 cells/ml", "result": 0.097}, {"measurement": "minimum inhibitory concentration (MIC)", "setting": "[8]; 1 × 10^6 cells/ml", "result": "< 0.048"}, {"measurement": "minimum inhibitory concentration (MIC)", "setting": "[8]; 1 × 10^8 cells/ml", "result": 0.097}, {"measurement": "minimum inhibitory concentration (MIC)", "setting": "[9]; 1 × 10^6 cells/ml", "result": "< 0.048"}, {"measurement": "minimum inhibitory concentration (MIC)", "setting": "[9]; 1 × 10^8 cells/ml", "result": "< 0.048"}, {"measurement": "minimum inhibitory concentration (MIC)", "setting": "[10]; 1 × 10^6 cells/ml", "result": "< 0.048"}, {"measurement": "minimum inhibitory concentration (MIC)", "setting": "[10]; 1 × 10^8 cells/ml", "result": "< 0.048"}, {"measurement": "minimum inhibitory concentration (MIC)", "setting": "[11]; 1 × 10^6 cells/ml", "result": "< 0.048"}, {"measurement": "minimum inhibitory concentration (MIC)", "setting": "[11]; 1 × 10^8 cells/ml", "result": "< 0.048"}, {"measurement": "minimum inhibitory concentration (MIC)", "setting": "[12]; 1 × 10^6 cells/ml", "result": 0.097}, {"measurement": "minimum inhibitory concentration (MIC)", "setting": "[12]; 1 × 10^8 cells/ml", "result": 0.195}]}
